Results as given in patent US12329738B2, “Urolithin A and a composition containing same for external use in inflammations of various etiologies” (WARSZAWSKI UNIWERSYTET MEDYCZNY, priority 2018, dated 2025).

What was measured:
[1] = tested on: IL-8, TNF-alpha and IL-1beta; experiment: IL-8, TNF-alpha and IL-1beta production by LPS-stimulated human neutrophils (ELISA); assay type: cell-based; settings: 40 μM (FIG. 12: 5, 10 and 40 μM); LPS 100 ng/mL, 24 h; derivatives compared with urolithin A
Method: After isolation, neutrophils were suspended in RPMI 1640 medium supplemented with L-glutamine, HEPES and 10% FBS and incubated with urolithin A and its acylated derivatives (SG1, SG2, SG3, SG4, SG1_m, SG2_m, SG3_m) at a concentration of 40 μM for 1 hour before stimulation with LPS from Escherichia coli (100 ng/mL). After 24 hours, IL-8, TNF-alpha and IL-1beta levels were determined using the immunochemical ELISA method (BD biosciences). The effect on neutrophil viability was assessed using annexin V and propidium iodide staining.
The obtained results of experiments on in vitro models were analyzed using the Statistica 13 program (StatSoft, Inc., Tulsa, OK, USA) and presented as mean values±SEM. Statistical significance was set at P≤0.05. The results with established normal distribution in the D'Agostin and Pearson test were prepared using analysis of variance (ANOVA). Parametric post-hoc analysis was performed using Dunnett's test.

[2] = tested on: Wistar rats (DNCB-induced atopic dermatitis); experiment: Ear thickness (edema) in DNCB-induced atopic dermatitis rat model; assay type: in vivo
Method: It is similar to the indications for use of hydrocortisone, which was used as a positive control in the study. Urolitin A was obtained by synthesis according to Bialonska et al. (Bialonska et al., 2009) or purchased from Sigma-Aldrich. The ointment containing urolithin A was prepared by emulsifying the weighed substance into a solid vehicle (white petrolatum) using an unguator. Wistar rats aged 5-6 weeks (at the start of the experiment) kept under standard conditions with free access to feed and water were used for the tests. The animals were divided into 5 groups, 8 individuals in each group. To prepare 2,4-dinitrochlorobenzene (DNCB) composition inducing inflammation, DNCB was dissolved in 70% ethanol to a final concentration of 1.5% (w/v). Therapeutic composition was an ointment based on white petrolatum with 0.2% or 1.0% urolithin A added. The control ointment was white petrolatum without addition of urolithin A. The induction of chronic atopic dermatitis involved local 9-fold infiltration with 60 μl 1.5% 2,4-dinitrochlorobenzene (DNCB) on each (external and internal) surface of the right ear over 3 weeks (3 times a week). Negative control was the right ear of rats without induction inflammation. Treatment of atopic dermatitis with 0.2% or 1.0% urolithin composition and white petrolatum (control) or 1.0% hydrocortisone composition (positive control) was started eight days after sensitization—one day before the fourth application of DNCB. Ointments with appropriate for given group drug added were applied in a total volume of about 20 μl to each ear surface one day before and 6 hours after each DNCB application (for a period of 3 weeks). The negative control group consisted of rats without induced inflammation and treated with white petrolatum in a regimen analogous to the composition of urolithin A or hydrocortisone. Ear thickness was assessed using an electronic mini caliper the day before inflammation was induced (day 0) and then on days 4 and 8 prior to treatment and on days 4, 8, 12, 16, […] of therapy with urolithin A composition (on days 12, 16, 20, 24, 28 and 32 after inflammation inducing, respectively). The experimental results obtained were analyzed using the Statistica 7.1 program (StatSoft, Inc., Tulsa, OK, USA) and presented as mean values±SE. Statistical significance was set at P≤0.05. The results with established normal distribution in the D'Agostin and Pearson test were prepared using two- or three-factor analysis of variance (ANOVA). Parametric post-hoc analysis for individual time points was performed using the Bonferroni test.

[3] = Local application of urolithin A ointment on skin by volunteers; assay type: in vivo, human; settings: 1.0% urolithin A ointment in white petrolatum, 20 mg per 4 cm^2 once a day for two weeks
Method: The therapeutic composition was an ointment prepared on the base of white petrolatum with 1.0% urolithin A added. The control ointment was white petrolatum without the addition of urolithin A. 1.0% urolithin A composition and the carrier—white petrolatum was applied on washed and dried skin by volunteers themselves, at a dose of 20 mg ointment per surface 4 cm^2 daily, once a day for two weeks.
The following parameters were taken into account in the study: feeling of discomfort after application of the composition on the skin, ease of application, discoloration of the skin at the site of application, redness of the skin at the site of application of the composition, degree of drying of the treated area of the skin, sensation of pinching, burning, itching and other types of discomfort. Participants in the study determined their level of satisfaction/dissatisfaction on a 10-point scale, 0 being dissatisfaction and 10 being satisfaction with the pharmaceutical composition of the present invention.

tyrosinase = biological target: T1, tyrosinase (Mus musculus, UniProt P11344); settings: B16 melanoma cells; cited from earlier work
T1 sequence (P11344 19-533): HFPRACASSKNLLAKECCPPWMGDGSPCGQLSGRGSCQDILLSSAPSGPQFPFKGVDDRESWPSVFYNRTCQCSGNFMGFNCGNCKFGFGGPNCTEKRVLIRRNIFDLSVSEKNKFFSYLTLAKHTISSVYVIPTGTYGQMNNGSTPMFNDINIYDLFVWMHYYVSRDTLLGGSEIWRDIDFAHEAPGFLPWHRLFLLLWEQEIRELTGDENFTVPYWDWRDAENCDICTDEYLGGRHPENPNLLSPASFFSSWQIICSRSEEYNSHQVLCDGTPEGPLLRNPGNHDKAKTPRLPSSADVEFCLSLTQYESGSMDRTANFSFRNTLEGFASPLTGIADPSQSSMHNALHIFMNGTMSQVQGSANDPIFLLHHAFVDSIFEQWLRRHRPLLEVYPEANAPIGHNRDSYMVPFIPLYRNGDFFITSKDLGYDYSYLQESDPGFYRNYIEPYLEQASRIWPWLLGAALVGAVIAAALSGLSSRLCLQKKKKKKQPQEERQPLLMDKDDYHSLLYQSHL

[4] = tested on: S100A8/A9 protein (calprotectin); experiment: Extracellular S100A8/A9 level, LPS-stimulated human neutrophils (ELISA); assay type: cell-based; settings: 40, 10 and 1 μM; LPS 10 ng/mL; 30 min; concentration dependent
Method: In order to comparatively study the biological activity of urolithins and their derivatives, these compounds were obtained by chemical synthesis, and then their activity against release of calprotectin by stimulated neutrophils was examined. Peripheral blood was collected from healthy donors (aged 20-35) at the Regional Blood Donation and Blood Treatment Center (Regionalne Centrum Krwiodawstwa i Krwiolecznictwa) in Warsaw. The study was conducted in accordance with the principles of the Declaration of Helsinki. […] Neutrophils were isolated using a standard method (Piwowarski et al., 2014a). Neutrophils were then suspended in HBSS. 50 μL of urolithin A, urolithin B or iso-urolitin A at the appropriate concentration (to achieve final concentrations of 40, 10 and 1 μM) and 10 μL of LPS solution (final concentration of 10 ng/mL) were added to 440 μl of cell suspension (3×10^5 cells/mL). Cells were incubated at 37° C. for 30 min, then centrifuged at 4° C., 400 rcf for 10 min. The experiment was carried out on blood samples taken from 4 different donors in duplicates. The effect of urolithins on the production of S100A8/A9 was determined using the immunochemical ELISA method (R&D Systems).
The obtained results of experiments on in vitro models were analyzed using the Statistica 13 program (StatSoft, Inc., Tulsa, OK, USA) and presented as mean values±SEM. […]

human fibroblasts = human fibroblasts in vitro; cited from earlier work
TNF-alpha = TNF-alpha production by macrophages from human peripheral blood monocytes (ELISA); assay type: cell-based; settings: 40 μM; LPS 100 ng/mL, 24 h; FIG. 16
Method: Monocytes were isolated from peripheral human blood by a standard method using dextran sedimentation and Ficoll Hypaque gradient centrifugation. After isolation, monocytes were suspended in RPMI 1640 medium supplemented with L-glutamine, HEPES, streptomycin, amphotericin and gentamicin, and 20% autologous serum. Cell culture was carried out under these conditions for 7 days. […] After 24h, TNF-alpha level in the medium was determined using the immunochemical ELISA method (BD biosciences). The obtained results of experiments on in vitro models were analyzed using the Statistica 13 program (StatSoft, Inc., Tulsa, OK, USA) and presented as mean values±SEM. Statistical significance was set at P≤0.05. The results with established normal distribution in the D'Agostin and Pearson test were prepared using analysis of variance (ANOVA). Parametric post-hoc analysis was performed using Dunnett's test.

Q: With `O=c1oc2cc(O)ccc2c2ccc(O)cc12` [urolithin A] as the compound, how does the “Production of proinflammatory cytokines IL-8, TNF-alpha and IL-1beta by human neutrophils” value [1] read?
A: inhibition of the production of proinflammatory cytokines

Q: What about the “Ear edema, comparison of urolithin doses with each other” value ([2]; 0.2% vs 1%, p<0.05) of the same compound?
A: more effective at a concentration of 1%

Q: And the “Time profile of anti-edema effect, urolithin A vs. hydrocortisone” value ([2]; later treatment period (from day 12 to 28 of treatment), dose 0.2 and 1%, p<0.01)?
A: more effective in the later treatment period

Q: What about the “Ear edema (ear thickness) after local therapy” value ([2]; topical ointment in white petrolatum, urolithin A 0.2 and 1.0%, hydrocortisone 1%, urolithin A p<0.001, hydrocortisone p<0.01) of the same compound?
A: reduced

Q: What about the “Anti-inflammatory (ear edema) effect compared to hydrocortisone 1%” value ([2]; urolithin A 0.2% ointment) of the same compound?
A: absence of significantly greater efficiency

Q: What about the “Anti-inflammatory (ear edema) effect compared to hydrocortisone 1%” value ([2]; urolithin A 1% ointment, p<0.05) of the same compound?
A: significantly greater anti-inflammatory effect compared to hydrocortisone

Q: What about the “Ear edema reduction, urolithin vs. hydrocortisone (2-factor ANOVA)” value ([2]; urolithin A (both doses) vs. 1% hydrocortisone, p<0.05) of the same compound?
A: stronger

Q: And the “Adverse effects after skin application” value [3]?
A: did not cause any adverse effects

Q: And the “Tyrosinase activity (depigmentation)” value (tyrosinase)?
A: suppressing tyrosinase activity

Q: And the “Extracellular level of S100A8/A9 protein (calprotectin)” value [4]?
A: significant decrease

Q: And the Collagen synthesis (human fibroblasts)?
A: stimulated collagen synthesis

Q: And the “Inhibition of fibroblast aging” value (human fibroblasts)?
A: no inhibition of fibroblast aging was found

Q: What about the “mRNA expression for matrix metalloproteinase-1” value (human fibroblasts) of the same compound?
A: inhibited the mRNA expression

Q: What about the “Inhibition of TNF-alpha production by macrophages from human peripheral blood monocytes” value (TNF-alpha) of the same compound?
A: most active compound
